Reference: patent US11958864B2, “Tetracyclic heterocycle compounds useful as HIV integrase inhibitors” (Merck Sharp & Dohme LLC, priority 2021, dated 2024)

Experiment: Dog pharmacokinetic studies: oral dosing of Compound A or prodrug, plasma Compound A by LC-MS/MS
Assay type: in vivo, Male Beagle Dogs
Conditions: fasted Beagle dogs, comparison with dosing of Compound A
Procedure: Male Beagle Dogs (Marshall Farms) were used for the pharmacokinetic studies. Studies were conducted under a protocol approved by the WP-IACUC (Animal Procedure Statement #2018-600787-MAR). Following overnight-fasting, dogs were dosed orally with either Compound A at 10 mg/kg and 25 mg/kg or one of the respective prodrugs at the dose equivalent to 10 mg/kg and 25 mg/kg of Compound A formulated as a suspension in either 0.5% methylcellulose with 0.25% sodium lauryl sulfate or 10% Tween 80-5 mM HCl. Food was returned at 4 hours after dosing. Blood (0.5-mL) was drawn at pre-dose, 0.25, 0.5, 1, 2, 4, 6, 24, 48, 72, 96, and 168 hours post-dosing into EDTA-coated collection tubes containing 25 μL of 2 mM dichlorvos solution in water. The tubes were kept chilled prior to blood collection and throughout plasma separation. The plasma was separated by centrifugation (2 minutes at 10000 g). Plasma samples were immediately frozen and kept at −70° C. until analysis by LC-MS/MS.

| SMILES | absorption versus their metabolite, Compound A |
| --- | --- |
| COCCOC(=O)OCOc1c2n3c(c(C(=O)NCc4cccc(Cl)c4F)c1=O)CC[C@@H]3[C@@H]1OCCCN1C2=O [Compound 1, (((11aS,11bR)-3-((3-chloro-2-fluorobenzyl)carbamoyl)-4,6-dioxo-1,2,4,6,9,10,11a,11b-octahydro-8H-[1,3]oxazino[2′,3′:3,4]pyrazino[2,1,6-cd]indolizin-5-yl)oxy)methyl (2-methoxyethyl) carbonate] | increase in absorption |
| COC(=O)OCOc1c2n3c(c(C(=O)NCc4cccc(Cl)c4F)c1=O)CC[C@@H]3[C@@H]1OCCCN1C2=O [Compound 6, (((11aS,11bR)-3-((3-chloro-2-fluorobenzyl)carbamoyl)-4,6-dioxo-1,2,4,6,9,10,11a,11b-octahydro-8H-[1,3]oxazino[2′,3′:3,4]pyrazino[2,1,6-cd]indolizin-5-yl)oxy)methyl methyl carbonate] | increase in absorption |
